Values of other authors as cited in patent publication US20040131543A1, “Radiopharmaceuticals and radioactive microspheres for locoregional ablation of abnormal tissues” (priority 2002, published 2004).

Settings: single intratracheal instillation, rats

SMILES: [Cl][Gd]([Cl])[Cl] [GdCl3, Gd chloride]
- Half-life of Gd deposited in lung tissue: extremely long half-life
